Data on one molecule can be found in patent US20250082651A1, “GANAXOLONE FOR USE IN TREATING GENETIC EPILEPTIC DISORDERS” (Marinus Pharmaceuticals, Inc., priority 2017, published 2025).

Data set [1] deals with rats or mice. Kind of data set: Reproductive/developmental toxicity and mutagenicity. The class given is in vivo.
The nature of data set [2]: Solubility of ganaxolone in solvents. The class given is physicochemical. Here is the method: Ganaxolone is insoluble in water. Its solubilities in 95% alcohol, propylene glycol and polyethylene glycol are 13 mg/mL, 3.5 mg/mL and 3.1 mg/mL, respectively.
The pregnenolone neurosteroid (e.g., ganaxolone) formulations suitable for use in the present invention may also be administered parenterally. In such embodiments, the formulations are suitable for intramuscular, subcutaneous, or intravenous injection may comprise physiologically acceptable sterile aqueous or non-aqueous solutions, dispersions, suspensions or emulsions, and sterile powders for reconstitution into sterile injectable solutions or dispersions. Examples of suitable aqueous and non-aqueous carriers, diluents, solvents, or vehicles including water, ethanol, polyols (propylene glycol, polyethylene-glycol, glycerol, cremophor and the like), suitable mixtures thereof, vegetable oils (such as olive oil) and injectable organic esters such as ethyl oleate. Additionally, Ganaxolone can be dissolved at concentrations of >1 mg/ml using water soluble beta cyclodextrins (e.g. beta-sulfobutyl-cyclodextrin and 2-hydroxypropylbetacyclodextrin). A particularly suitable cyclodextrin is a substituted-β-cyclodextrin is CAPTISOL® (cyckodextrin). […]

As to `CC(=O)[C@H]1CC[C@H]2[C@@H]3CC[C@H]4C[C@](C)(O)CC[C@]4(C)[C@H]3CC[C@]12C` [Ganaxolone, 3α-hydroxy-3β-methyl-5α-pregnan-20-one], in data set [1] (in vivo), the Mutagenicity result is listed as “No potential for mutagenicity”. In data set [1] (rats), the “Effects on fertility and early embryonic development” value is recorded as “no effects”. Further, the Teratogenicity entry in data set [1] (rats or mice) was “not teratogenic”. The Dissolved concentration in data set [2] (using water soluble beta cyclodextrins) is greater than 1 mg/mL. In data set [2] (water), the Solubility in water result was “insoluble”.
